Results published in patent US4464388A, “Use of prostaglandin analogues to treat cytodamage” (priority 1982, dated 1984).
Where two headings read alike, the source gives them in different places.

Legend:
Acute toxicity test = settings: mouse, in vivo; oral, mice observed for 14 days
Method: Male JCL-ICR mice (non SPF mice) from 7 weeks of age were used. The compound under test was dissolved in 5% v/v ethanol containing 0.4% w/v Tween 80 (Tween is a registered trademark) and administered orally to the mice. […] The deaths observed were all within 72 hrs after treatment.

[1] = test system: carbon tetrachloride (CCl4) induced liver damage; experiment: Effect on carbon tetrachloride (CCl4) induced liver damage (liver cell necrosis type); assay type: in vivo, Male Wistar rats; settings: for inhibition in vivo at 0.1 mg/kg / inhibition in vivo at 0.02 mg/kg / inhibition in vivo at 1.5 mg/kg / inhibition in vivo at 1 mg/kg / inhibition in vivo at 0.05 mg/kg / inhibition in vivo at 0.5 mg/kg: Rattus norvegicus, 24 h; for inhibition in vivo at 0.02 mg/kg: 20 μg/kg; for inhibition in vivo at 1.5 mg/kg: 1500 μg/kg; for inhibition in vivo at 1 mg/kg: 1000 μg/kg; for inhibition in vivo at 0.05 mg/kg: 50 μg/kg; for inhibition in vivo at 0.5 mg/kg: 500 μg/kg
Method: Effect on carbon tetrachloride (CCl4) induced liver damage (liver cell necrosis type)
Male Wistar rats weighing 180-220 g were used. Rats were dosed intraperitoneally with CCl4 dissolved in olive oil (5%, w/v) at a volume of 500 μl/kg after 18 hr starvation. The compound under test was administered orally (p.o.) or subcutaneously (s.c.) 6 and 12 hr after CCl4 injection in rats and blood was collected after 24 hr. Plasma glutamic oxaloacetic transaminase (GOT) and glutamic pyruvic transaminase (GPT) activities were determined by ultraviolet absorbance methods (optimised method based on the recommendations of the Deutsche Gesellschaft fur Klinische Chemie). The effects of the compounds tested were assessed by the inhibition rate in comparison with controls. Inhibition rate was calculated by the following formula. [formula] The results obtained are shown in the following Tables 1A and 1B for compounds of the general formula: [drawing 10] wherein R, R^1 and --X--Y--Z-- have the meanings indicated.
In Tables 1A, 1B and 2 to 5 hereinafter the dose shown in the amount given at each administration of the compound under test.

[2] = test system: blood platelet aggregation; settings: cited from earlier work
artery = settings: cited from earlier work
[3] = po, p.o., 100 μg/kg, plasma GOT after 24 hr, read-out: inhibition rate GOT
[4] = po, p.o., 100 μg/kg, plasma GPT after 24 hr, read-out: inhibition rate GPT
[5] = sc, s.c., plasma GOT after 24 hr, read-out: inhibition rate GOT
[6] = sc, s.c., plasma GPT after 24 hr, read-out: inhibition rate GPT
[7] = po, p.o., plasma GOT after 24 hr, read-out: inhibition rate GOT
[8] = po, p.o., plasma GPT after 24 hr, read-out: inhibition rate GPT

CCCCC1CCC([C@H](O)/C=C/[C@H]2[C@H](O)CC(=O)[C@@H]2CC(=O)CCCCC(=O)OC)C1 (single isomer, unassigned) [Compound 8, 15-(3-Butylcyclopentyl)-16,17,18,19,20-pentanor-6-oxo-PGE1 methyl ester]
LD50 at 336 h (Acute toxicity test): 10 to 20 mg/kg
inhibition in vivo at 0.1 mg/kg [1, 3]: 77.7%
inhibition in vivo at 0.1 mg/kg [1, 4]: 73.7%
inhibition in vivo at 0.02 mg/kg [1, 5]: 44.4%
inhibition in vivo at 0.02 mg/kg [1, 6]: 39.3%

CCCC1CCC([C@H](O)/C=C/[C@@H]2[C@H]3CC(CCCCC(=O)OC)O[C@H]3C[C@H]2O)C1 (stereo partly shown) [Compound 16, 15-(3-Propylcyclopentyl)-16,17,18,19,20-pentanor-PGI1 methyl ester]
inhibition in vivo at 1.5 mg/kg [1, 7]: 51%
inhibition in vivo at 1.5 mg/kg [1, 8]: 53%

CCCC1CCC([C@H](O)/C=C/[C@@H]2[C@H]3C[C@H](CCCCC(=O)OC)O[C@H]3C[C@H]2O)C1 (stereo partly drawn) [Compound 17, (6S)-15-(3-propylcyclopentyl)-16,17,18,19,20-pentanor-PGI1 methyl ester]
inhibition in vivo at 1 mg/kg [1, 7]: 32.9%
inhibition in vivo at 1 mg/kg [1, 8]: 32%

CCCC1CCC([C@H](O)/C=C/[C@@H]2[C@H]3CC(CCCCC(=O)OC)=N[C@H]3C[C@H]2O)C1 (stereo partly drawn) [Compound 13, 15-(3-Propylcyclopentyl)-16,17,18,19,20-pentanor-6,9α-nitrilo-PGI1 methyl ester]
inhibition in vivo at 1 mg/kg [1, 7]: 46%
inhibition in vivo at 1 mg/kg [1, 8]: 32.5%

CCCCC[C@H](O)/C=C/[C@H]1O[C@H]2C[C@H](O2)[C@@H]1C/C=C\CCCC(=O)O [thromboxane A2]
effect on blood platelet aggregation [2]: aggregating activity
activity on the artery (artery): contracting activity

CCCC1CC([C@H](O)/C=C/[C@H]2[C@H](O)CC(=O)[C@@H]2CC(=O)CCCCC(=O)OC)C1 (stereo partly shown) [Compound 2, 15-(3-Propylcyclobutyl)-16,17,18,19,20-pentanor-6-oxo-PGE1 methyl ester]
inhibition in vivo at 0.05 mg/kg [1, 5]: 52.4%
inhibition in vivo at 0.05 mg/kg [1, 6]: 17.3%

COC(=O)CCCCC(=O)C[C@H]1C(=O)C[C@@H](O)[C@@H]1/C=C/[C@@H](O)C1CCC(C)CC1 (stereo partly shown) [Compound 9, 15-(4-Methylcyclohexyl)-16,17,18,19,20-pentanor-6-oxo-PGE1 methyl ester]
inhibition in vivo at 0.1 mg/kg [1, 3]: 21%
inhibition in vivo at 0.1 mg/kg [1, 4]: 0%
inhibition in vivo at 0.05 mg/kg [1, 5]: 13.1%
inhibition in vivo at 0.05 mg/kg [1, 6]: 8.8%

CCC1CC([C@H](O)/C=C/[C@H]2[C@H](O)CC(=O)[C@@H]2CC(=O)CCCCC(=O)OC)C1 (stereo partly shown) [Compound 1, 15-(3-Ethylcyclobutyl)-16,17,18,19 20-pentanor-6-oxo-PGE1 methyl ester]
inhibition in vivo at 0.05 mg/kg [1, 5]: 21%
inhibition in vivo at 0.05 mg/kg [1, 6]: 0%

CCCC1CCC([C@H](O)/C=C/[C@H]2[C@H](O)CC(=O)[C@@H]2CC(=O)CCCCC(=O)O)C1 (stereo partly shown) [Compound 5, 15-(3-Propylcyclopentyl)-16,17,18,19,20-pentanor-6-oxo-PGE1]
inhibition in vivo at 0.1 mg/kg [1, 3]: 32.6%
inhibition in vivo at 0.1 mg/kg [1, 4]: 44.5%

CCCC1CCC([C@H](O)/C=C/[C@H]2[C@H](O)CC(=O)[C@@H]2CC(=O)CCCCC(=O)OC)C1 (stereo partly shown) [Compound 4, 15-(3-Propylcyclopentyl)-16,17,18,19,20-pentanor-6-oxo-PGE1 methyl ester]
inhibition in vivo at 0.1 mg/kg [1, 3]: 77%
inhibition in vivo at 0.1 mg/kg [1, 4]: 51.5%

CCC1CCC([C@H](O)/C=C/[C@H]2[C@H](O)CC(=O)[C@@H]2CC(=O)CCCCC(=O)OC)CC1 (stereo partly shown) [Compound 10, 15-(4-Ethylcyclohexyl)-16,17,18,19,20-pentanor-6-oxo-PGE1 methyl ester]
inhibition in vivo at 0.05 mg/kg [1, 5]: 35.6%
inhibition in vivo at 0.05 mg/kg [1, 6]: 12.2%

CCCC1CCC([C@H](O)/C=C/[C@H]2[C@H](O)CC(=O)[C@@H]2CC(=O)CCCCC(=O)OC)CC1 (stereo partly shown) [Compound 11, 15-(4-Propylcyclohexyl)-16,17,18,19,20-pentanor-6-oxo-PGE1 methyl ester]
inhibition in vivo at 0.05 mg/kg [1, 5]: 48.5%
inhibition in vivo at 0.05 mg/kg [1, 6]: 45.1%

COC(=O)CCCCC(=O)C[C@H]1C(=O)C[C@@H](O)[C@@H]1/C=C/[C@@H](O)C1CCCC1 [Compound 3, 15-Cyclopentyl-16,17,18,19,20-pentanor-6-oxo-PGE1 methyl ester]
LD50 at 336 h (Acute toxicity test): 10 to 20 mg/kg
inhibition in vivo at 0.1 mg/kg [1, 3]: 19%
inhibition in vivo at 0.1 mg/kg [1, 4]: 30.5%

CCCC1CCC([C@H](O)/C=C/[C@@H]2[C@H]3CC(CCCCC(=O)OC)=N[C@H]3C[C@H]2O)C1 (single isomer, unassigned) [Compound 14, 15-(3-Propylcyclopentyl)-16,17,18,19,20-pentanor-6,9α-nitrilo-PGI1 methyl ester]
LD50 at 336 h (Acute toxicity test): 40 to 100 mg/kg
inhibition in vivo at 0.5 mg/kg [1, 7]: 39.8%
inhibition in vivo at 0.5 mg/kg [1, 8]: 20.8%
inhibition in vivo at 0.5 mg/kg [1, 5]: 68.6%
inhibition in vivo at 0.5 mg/kg [1, 6]: 64.2%

CCCC1CCC([C@H](O)/C=C/[C@H]2[C@H](O)CC(=O)[C@@H]2CC(=O)CCCCC(=O)OC)C1 (single isomer, unassigned) [Compound 12, 15-(3-Propylcyclopentyl)-16,17,18,19,20-pentanor-6-oxo-PGE1 methyl ester]
inhibition rate GOT ([1]; p.o., 100 μg/kg, plasma GOT after 24 hr): 25.4%
inhibition rate GPT ([1]; p.o., 100 μg/kg, plasma GPT after 24 hr): 22.2%

CCCCC1CCC([C@H](O)/C=C/[C@H]2[C@H](O)CC(=O)[C@@H]2CC(=O)CCCCC(=O)OC)C1 (stereo partly shown) [Compound 7, 15-(3-Butylcyclopentyl)-16,17,18,19,20-pentanor-6-oxo-PGE1 methyl ester]
inhibition in vivo at 0.1 mg/kg [1, 3]: 62.7%
inhibition in vivo at 0.1 mg/kg [1, 4]: 55.1%

CCCCC1CCC([C@H](O)/C=C/[C@@H]2[C@H]3CC(CCCCC(=O)OC)=N[C@H]3C[C@H]2O)C1 (stereo partly drawn) [Compound 15, 15-(3-Butylcyclopentyl)-16,17,18,19,20-pentanor-6,9α-nitrilo-PGI1 methyl ester]
inhibition in vivo at 1 mg/kg [1, 7]: 45.5%
inhibition in vivo at 1 mg/kg [1, 8]: 15.6%
